These results are taken from patent publication US8791143B2, “Anthranilic diamide derivatives having cyclic side-chains” (priority 2010, dated 2014).

Like-named read-outs stand apart in the source and are kept apart here.

For series [1], the system named is caterpillars of the armyworm (Spodoptera frugiperda). Briefly: Spodoptera frugiperda test (SPODFR spray treatment). The series is classed as in vivo. As to conditions: Spodoptera frugiperda, 168 h; for pest or weed control at 100 g/ha / pest or weed control at 500 g/ha: read-out: activity in % (caterpillars killed); for pest or weed control at 500 g/ha: application rate 500 g/ha.

Series [2] is described as follows: log P by HPLC on reversed-phase columns (EEC Directive 79/831 Annex V.A8). The series is classed as physicochemical.
Series [3] relates to larvae of the mustard beetle (Phaedon cochleariae). Briefly: Phaedon test (PHAECO spray treatment). As to conditions: Phaedon cochleariae, 168 h, read-out: activity in % (beetle larvae killed).
The subject of another series is Lucilia cuprina larvae. Briefly: Lucilia cuprina test (LUCICU). The series is classed as in vivo. As to conditions: 1152 h, read-out: activity (kill in %). Here is the method:
(§1) Solvent: dimethyl sulphoxide
Vessels containing horse meat treated with the active ingredient preparation of the desired concentration are populated with about 20 Lucilia cuprina larvae.
(§2) After 48 days, the kill in % is determined.

The next series relates to Boophilus microplus. Briefly: Boophilus microplus test (BOOPMI injection). The class given is in vivo. As to conditions: Rhipicephalus microplus, 168 h; 20 μg/animal, injection into the abdomen, after 7 days; read-out: activity in % (no fertile eggs laid). Here is the method: as §1
The active compound solution is injected into the abdomen (Boophilus microplus), and the animals are transferred into dishes and stored in a climate-controlled room.
The activity is assessed by […] of fertile eggs. 100% means that none of the ticks has laid any fertile eggs.

The test system of series [4] is green peach aphid (Myzus persicae). As to the kind of experiment: Myzus test (MYZUPE spray treatment). The series is classed as in vivo. As to conditions: Myzus persicae, 144 h; for pest or weed control at 100 g/ha / pest or weed control at 500 g/ha: read-out: activity in % (aphids killed).
The test system of a further series is adult Musca domestica. As to the kind of experiment: Musca domestica test (MUSCDO). The series is classed as in vivo. Conditions: 1152 h, after 48 days, read-out: activity (kill in %). Here is the method:
as §1
Vessels containing a sponge treated with the active compound preparation of the desired concentration are populated with adult Musca domestica.
as §2

Where [5] appears, read: application rate 100 g/ha, after 7 days.
The mark [6] stands for this setting: reversed-phase C18 HPLC column, pH 2.7, HPLC reversed-phase C18, acidic range pH 2.7 (HCOOH), only or first value of the cell, read-out: log P.
Setting [7] is: application rate 100 g/ha, after 6 days.
Where [8] appears, read: application rate 500 g/ha, after 6 days.

On to `Cc1cc(Cl)cc(C(=O)NC2COC2)c1NC(=O)c1cc(Cn2cc(Br)c(C(F)(F)F)n2)nn1-c1ncccc1Cl` [Example 24], for which the pest or weed control at 100 g/ha in series [1] and in series [3] was 100% each time. The compound also returned a chromatographic logP in series [2] (pH 2.7, log P) of 3.2. Moreover, the pest or weed control at 100 ppm with Lucilia cuprina larvae worked out at 100%. In the series on Boophilus microplus, the pest or weed control at 0.02 mg stood at 100%.
With `Cc1cc(C#N)cc(C(=O)NC2COC2)c1NC(=O)c1cc(Cn2nnc(C(F)(F)F)n2)nn1-c1ccccc1Cl` [Example 26], the pest or weed control at 100 g/ha in series [1] (setting [5]), in series [3] and in series [4] (setting [7]) was 100% each time. For the same compound, the chromatographic logP in series [2] (setting [6]) came out at 2.85. Further, the pest or weed control at 100 ppm in the series on Lucilia cuprina larvae (100 ppm, after 48 days) turned out to be 100%; in the series on adult Musca domestica, 80%. For the same compound, in the series on Boophilus microplus, the pest or weed control at 0.02 mg was found to be 100%.
For `Cc1cc(C#N)cc(C(=O)NC2COC2)c1NC(=O)c1cc(Cn2nnc(C(F)(F)F)n2)nn1-c1c(F)cccc1F` [Example 27], the pest or weed control at 100 g/ha in series [1] (setting [5]) was found to be 100%; in series [3] it was 100%; in series [4] (setting [7]), 80%. Also, the chromatographic logP in series [2] (setting [6]) is 2.79. For the same compound, in the series on Lucilia cuprina larvae (100 ppm, after 48 days), the pest or weed control at 100 ppm worked out at 100%. For the same compound, the pest or weed control at 0.02 mg in the series with Boophilus microplus came to 100%. The pest or weed control at 20 ppm in the series with adult Musca domestica came out at 100%.
Regarding `Cc1cc(C#N)cc(C(=O)NC2CCN(Cc3ccccc3)C2)c1NC(=O)c1cc(Cn2nnc(C(F)(F)F)n2)nn1-c1ncccc1Cl` (stereo not drawn) [Example 30], the pest or weed control at 500 g/ha in series [1] (after 7 days), in series [3] and in series [4] (setting [8]) was 100% in each case. Further, in series [2] (setting [6]), the chromatographic logP was 1.9. For the same compound, the pest or weed control at 100 ppm with Lucilia cuprina larvae (100 ppm, after 48 days) turned out to be 100%. The pest or weed control at 0.02 mg in the series with Boophilus microplus was determined as 100%. Moreover, in the series with adult Musca domestica, the pest or weed control at 20 ppm worked out at 80%.
Take `Cc1cc(Cl)cc(C(=O)NC2CCN(Cc3ccccc3)C2)c1NC(=O)c1cc(Cn2nnc(C(F)(F)F)n2)nn1-c1ncccc1Cl` (stereo not drawn) [Example 31]: the pest or weed control at 500 g/ha in series [1] (after 7 days), in series [3] and in series [4] (setting [8]) was 100% throughout. The chromatographic logP in series [2] (setting [6]) turned out to be 2.03. In the series with Lucilia cuprina larvae (100 ppm, after 48 days), the pest or weed control at 100 ppm was 100%. In the series on Boophilus microplus, the pest or weed control at 0.02 mg was determined as 100%.
On to `Cc1cc(Cl)cc(C(=O)NC2CCN(Cc3ccccc3)C2)c1NC(=O)c1cc(Cn2nnc(C(F)(F)C(F)(F)F)n2)nn1-c1ncccc1Cl` (stereo not drawn) [Example 33], for which the pest or weed control at 500 g/ha in series [1] (after 7 days) and in series [3] was 100% in each case. In addition, the chromatographic logP in series [2] (setting [6]) amounted to 2.3. The pest or weed control at 100 ppm with Lucilia cuprina larvae (100 ppm, after 48 days) amounted to 100%. Besides, the pest or weed control at 0.02 mg with Boophilus microplus is 100%.
Regarding `Cc1cc(C#N)cc(C(=O)NC2CCS(=O)(=O)C2)c1NC(=O)c1cc(Cn2nnc(C(F)(F)F)n2)nn1-c1ccccc1Cl` (stereo not drawn) [Example 36], the inhibition – broadly, the share of the control response that was lost under treatment – at 100 g/ha in series [1] (100 g/ha, 7 d, comparison with prior art) amounted to 100%; in series [4] (100 g/ha, 6 d, comparison with prior art) it was 100%. The pest or weed control at 100 g/ha in series [1] (setting [5]), in series [3] and in series [4] (setting [7]) was 100% each time. Besides, the chromatographic logP in series [2] (setting [6]) turned out to be 2.82. Further, the pest or weed control at 100 ppm in the series with Lucilia cuprina larvae (100 ppm, after 48 days) was 100%; in the series on adult Musca domestica, 80%. Also, the pest or weed control at 0.02 mg in the series with Boophilus microplus was 100%.
Turning to `Cc1cc(Cl)cc(C(=O)NC2CCS(=O)(=O)C2)c1NC(=O)c1cc(Cn2nnc(C(F)(F)C(F)(F)F)n2)nn1-c1ncccc1Cl` (stereo not drawn) [Example 37], the pest or weed control at 500 g/ha in series [1] (after 7 days), in series [3] and in series [4] (setting [8]) was 100% throughout. The chromatographic logP in series [2] (setting [6]) amounted to 3.13. The pest or weed control at 100 ppm with Lucilia cuprina larvae (100 ppm, after 48 days) was 100%; in the series on adult Musca domestica, 80%. Further, the pest or weed control at 0.02 mg in the series on Boophilus microplus is 100%.
As to `Cc1cc(C#N)cc(C(=O)NC2CCSC2=O)c1NC(=O)c1cc(Cn2nnc(C(F)(F)C(F)(F)F)n2)nn1-c1ncccc1Cl` (stereo not drawn) [Example 40], the pest or weed control at 500 g/ha in series [1] (after 7 days) and in series [3] was 100% throughout. Further, in series [2] (setting [6]), the chromatographic logP came to 3.25. The pest or weed control at 100 ppm with Lucilia cuprina larvae (100 ppm, after 48 days) came to 100%. For the same compound, in the series with Boophilus microplus, the pest or weed control at 0.02 mg came to 100%.
As to `Cc1cc(Cl)cc(C(=O)N[C@@H]2CCOC2=O)c1NC(=O)c1cc(Cn2nnc(C(F)(F)C(F)(F)F)n2)nn1-c1ncccc1Cl` [Example 43], the pest or weed control at 100 g/ha in series [1] and in series [3] was 100% in each case. Further, the “log P (second value after the slash)” value in series [2] (pH 2.7) is on record as 2.92. This compound also returned a chromatographic logP in series [2] (pH 2.7, log P) of 3.21. In addition, the pest or weed control at 100 ppm in the series with Lucilia cuprina larvae was found to be 100%. Also, the pest or weed control at 0.02 mg in the series with Boophilus microplus was 100%. The pest or weed control at 500 g/ha in series [4] worked out at 100%.
Take `Cc1cc(C#N)cc(C(=O)NCc2ccc(S(F)(F)(F)(F)F)cc2)c1NC(=O)c1cc(Cn2nnnc2C(F)(F)F)nn1-c1ncccc1Cl` [Example 69]: the pest or weed control at 100 g/ha in series [1] (setting [5]) and in series [3] was 100% throughout. Also, in series [2] (setting [6]), the chromatographic logP was found to be 3.68. Besides, the pest or weed control at 100 ppm in the series with Lucilia cuprina larvae (100 ppm, after 48 days) was 100%. For the same compound, the pest or weed control at 0.02 mg in the series on Boophilus microplus worked out at 100%. Further, the pest or weed control at 20 ppm in the series on adult Musca domestica is 80%.
For the compound `Cc1cc(Cl)cc(C(=O)NCc2ccc(N)cc2)c1NC(=O)c1cc(Cn2nnc(C(F)(F)F)n2)nn1-c1ncccc1Cl` [Example 140], the pest or weed control at 100 g/ha in series [1], in series [3] and in series [4] was 100% each time. The compound also came in with a chromatographic logP in series [2] (pH 2.7, log P) of 2.55.
`Cc1cc(Cl)cc(C(=O)NCc2ccccc2OC(F)(F)F)c1NC(=O)c1cc(Cn2nnc(C(F)F)n2)nn1-c1ncccc1Cl` [Example 150]: the pest or weed control at 100 g/ha in series [1] (setting [5]), in series [3] and in series [4] (setting [7]) was 100% throughout. Besides, the chromatographic logP in series [2] (setting [6]) was 3.81.
For the compound `Cc1cc(Cl)cc(C(=O)NCc2ccc(OC(F)(F)F)cc2)c1NC(=O)c1cc(Cn2nnc(C(F)F)n2)nn1-c1ncccc1Cl` [Example 151], the pest or weed control at 100 g/ha in series [1] (setting [5]), in series [3] and in series [4] (setting [7]) was 100% in each case. In addition, in series [2] (setting [6]), the chromatographic logP stood at 3.78.
Turning to `Cc1cc(Cl)cc(C(=O)NCc2ccc(OC(F)F)cc2)c1NC(=O)c1cc(Cn2nnc(C(F)(F)F)n2)nn1-c1ncccc1Cl` [Example 152], the pest or weed control at 100 g/ha in series [1] (setting [5]), in series [3] and in series [4] (setting [7]) was 100% throughout. In addition, the chromatographic logP in series [2] (setting [6]) worked out at 3.87.
As to `Cc1cc(C#N)cc(C(=O)NCc2ccccc2OC(F)(F)F)c1NC(=O)c1cc(Cn2nnc(C(F)(F)F)n2)nn1-c1ncccc1Cl` [Example 153], the figures for the pest or weed control at 100 g/ha in series [1] (setting [5]), in series [3] and in series [4] (setting [7]) were 100%, 100% and 90%, respectively. Besides, in series [2] (setting [6]), the chromatographic logP was found to be 3.89.
For the compound `O=C(NCc1ccccc1OC(F)(F)F)c1cc(Br)cc(Cl)c1NC(=O)c1cc(Cn2nnc(C(F)(F)F)n2)nn1-c1ncccc1Cl` [Example 193], the values for the pest or weed control at 100 g/ha in series [1] (setting [5]), in series [3] and in series [4] (setting [7]) were 100%, 100% and 90%, respectively. Moreover, in series [2] (setting [6]), the chromatographic logP came to 4.3.
`O=C(NCc1ccc(Cl)cc1)c1cc(Cl)cc(F)c1NC(=O)c1cc(Cn2nnc(C(F)(F)F)n2)nn1-c1ncccc1Cl` [Example 206]: the pest or weed control at 100 g/ha in series [1] (setting [5]), in series [3] and in series [4] (setting [7]) was 100% throughout. For the same compound, in series [2] (setting [6]), the chromatographic logP came out at 3.9.
Take `Cc1cc(Cl)cc(C(=O)NCc2ccc(F)cn2)c1NC(=O)c1cc(Cn2nnc(C(F)(F)F)n2)nn1-c1ncccc1Cl` [Example 224]: the pest or weed control at 100 g/ha in series [1] is 100%; in series [3], 100%; in series [4] it was 90%. The same compound returned a chromatographic logP in series [2] (pH 2.7, log P) of 3.24.
For the compound `Cc1cc(Cl)cc(C(=O)NCc2ncc(F)cc2F)c1NC(=O)c1cc(Cn2nnc(C(F)(F)F)n2)nn1-c1ncccc1Cl` [Example 231], the pest or weed control at 100 g/ha in series [1] was found to be 100%; in series [3], 100%; in series [4], 90%. The compound also had a chromatographic logP in series [2] (pH 2.7, log P) of 3.5.
In the case of `Cc1cc(Cl)cc(C(=O)NC(C)c2ccc(Cl)cn2)c1NC(=O)c1cc(Cn2nnc(C(F)(F)F)n2)nn1-c1ncccc1Cl` (stereo not drawn) [Example 236], the pest or weed control at 100 g/ha in series [1] is 100%; in series [3], 100%; in series [4], 90%. In series [2] (pH 2.7, log P), this compound returned a chromatographic logP of 3.63.
